Measurements as given in PubChem BioAssay AID2060494 (Molecular Pharmacology Branch, DTP, NCI, 2025).

Test system: 435261-313-R-J1-PDC complex spheroid viability
Assay: Anticancer human tumor 435261-313-R-J1-PDC patient-derived colon adenocarcinoma cell line growth inhibition [GQUAD]
Details: for IC50: curve of first compound; for viability, T/C: stronger effect = lower value
In short: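 Tumor cells were grown as complex spheroids with HUVEC endothelial cells and mesenchymal stem cells as stroma. G-quadruplex stabilizers were combined with targeted agents over half-log dilutions from near the clinical Cmax, or from 10 microM.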

[1] = second compound 0.0316 µM, first compound 0.0316 µM
[2] = second compound 0.0316 µM, first compound 0.1 µM
[3] = second compound 0.0316 µM, first compound 0.316 µM
[4] = second compound 0.0316 µM, first compound 1 µM
[5] = second compound 0.0316 µM, first compound 3.16 µM
[6] = second compound 0.0316 µM, first compound 10 µM
[7] = second compound 0.1 µM, first compound 0.0316 µM
[8] = second compound 0.1 µM, first compound 0.1 µM
[9] = second compound 0.1 µM, first compound 0.316 µM
[10] = second compound 0.1 µM, first compound 1 µM
[11] = second compound 0.1 µM, first compound 3.16 µM
[12] = second compound 0.1 µM, first compound 10 µM
[13] = second compound 0.316 µM, first compound 0.0316 µM
[14] = second compound 0.316 µM, first compound 0.1 µM
[15] = second compound 0.316 µM, first compound 0.316 µM
[16] = second compound 0.316 µM, first compound 1 µM
[17] = second compound 0.316 µM, first compound 3.16 µM
[18] = second compound 0.316 µM, first compound 10 µM
[19] = second compound 1 µM, first compound 0.0316 µM
[20] = second compound 1 µM, first compound 0.1 µM
[21] = second compound 1 µM, first compound 0.316 µM
[22] = second compound 1 µM, first compound 1 µM
[23] = second compound 1 µM, first compound 3.16 µM
[24] = second compound 1 µM, first compound 10 µM
[25] = second compound 3.16 µM, first compound 0.0316 µM
[26] = second compound 3.16 µM, first compound 0.1 µM
[27] = second compound 3.16 µM, first compound 0.316 µM
[28] = second compound 3.16 µM, first compound 1 µM
[29] = second compound 3.16 µM, first compound 3.16 µM
[30] = second compound 3.16 µM, first compound 10 µM
[31] = second compound 10 µM, first compound 0.0316 µM
[32] = second compound 10 µM, first compound 0.1 µM
[33] = second compound 10 µM, first compound 0.316 µM
[34] = second compound 10 µM, first compound 1 µM
[35] = second compound 10 µM, first compound 3.16 µM
[36] = second compound 10 µM, first compound 10 µM
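Also: spheroids exposed to the agents for seven days before readout.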
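For viability, T/C in this document: percent of vehicle control viability with DMSO wells as 100%.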

## COc1ncnc(C2CC2)c1-c1ncc2cnn(Cc3ccc(-c4nc(C(F)(F)F)cn4C(C)C)cc3)c2n1 + CN(C)c1ccc(Nc2c3ccc(NC(=O)CCN4CCCC4)cc3nc3cc(NC(=O)CCN4CCCC4)ccc23)cc1
Second compound 0.0316 µM
  IC50: > 10 µM
Second compound 0.1 µM
  IC50: > 10 µM
Second compound 0.316 µM
  IC50: > 10 µM
Second compound 1 µM
  IC50: > 10 µM
Second compound 3.16 µM
  IC50: 3.14 µM
Second compound 10 µM
  IC50: < 0.0316 µM
[1]
  viability, T/C: 101%
[2]
  viability, T/C: 94.3%
[3]
  viability, T/C: 90%
[4]
  viability, T/C: 84.2%
[5]
  viability, T/C: 85.9%
[6]
  viability, T/C: 75.1%
[7]
  viability, T/C: 103%
[8]
  viability, T/C: 89.6%
[9]
  viability, T/C: 113%
[10]
  viability, T/C: 94%
[11]
  viability, T/C: 111%
[12]
  viability, T/C: 91.8%
[13]
  viability, T/C: 90.7%
[14]
  viability, T/C: 94%
[15]
  viability, T/C: 80.9%
[16]
  viability, T/C: 64%
[17]
  viability, T/C: 75.4%
[18]
  viability, T/C: 80.9%
[19]
  viability, T/C: 82.6%
[20]
  viability, T/C: 70.8%
[21]
  viability, T/C: 76.4%
[22]
  viability, T/C: 69.8%
[23]
  viability, T/C: 78.6%
[24]
  viability, T/C: 77.6%
[25]
  viability, T/C: 50.5%
[26]
  viability, T/C: 74.3%
[27]
  viability, T/C: 69%
[28]
  viability, T/C: 41.2%
[29]
  viability, T/C: 56.9%
[30]
  viability, T/C: 30.2%
[31]
  viability, T/C: 31.4%
[32]
  viability, T/C: 33.6%
[33]
  viability, T/C: 28.8%
[34]
  viability, T/C: 27.9%
[35]
  viability, T/C: 32.9%
[36]
  viability, T/C: 10.7%

## Nc1ccn(C2OC(CO)C(O)C2(F)F)c(=O)n1 (stereo unspecified) + CN(C)c1ccc(Nc2c3ccc(NC(=O)CCN4CCCC4)cc3nc3cc(NC(=O)CCN4CCCC4)ccc23)cc1
Second compound 0.0316 µM
  IC50: > 10 µM
Second compound 0.1 µM
  IC50: > 10 µM
Second compound 0.316 µM
  IC50: > 10 µM
Second compound 1 µM
  IC50: > 10 µM
Second compound 3.16 µM
  IC50: 2.84 µM
Second compound 10 µM
  IC50: < 0.0316 µM
[1]
  viability, T/C: 90.2%
[2]
  viability, T/C: 78.8%
[3]
  viability, T/C: 90%
[4]
  viability, T/C: 83%
[5]
  viability, T/C: 77.2%
[6]
  viability, T/C: 60.9%
[7]
  viability, T/C: 85.3%
[8]
  viability, T/C: 103%
[9]
  viability, T/C: 72.5%
[10]
  viability, T/C: 84.5%
[11]
  viability, T/C: 70.4%
[12]
  viability, T/C: 68.5%
[13]
  viability, T/C: 98.4%
[14]
  viability, T/C: 94.8%
[15]
  viability, T/C: 70.4%
[16]
  viability, T/C: 68.3%
[17]
  viability, T/C: 76.9%
[18]
  viability, T/C: 67.8%
[19]
  viability, T/C: 79.9%
[20]
  viability, T/C: 78.2%
[21]
  viability, T/C: 74.5%
[22]
  viability, T/C: 68.1%
[23]
  viability, T/C: 78.8%
[24]
  viability, T/C: 66.5%
[25]
  viability, T/C: 68.7%
[26]
  viability, T/C: 58%
[27]
  viability, T/C: 53.2%
[28]
  viability, T/C: 57.5%
[29]
  viability, T/C: 54%
[30]
  viability, T/C: 38.7%
[31]
  viability, T/C: 30.9%
[32]
  viability, T/C: 26.6%
[33]
  viability, T/C: 26.2%
[34]
  viability, T/C: 32.9%
[35]
  viability, T/C: 26.5%
[36]
  viability, T/C: 24.9%

## O=c1[nH]cc(F)c(=O)[nH]1 + CN(C)c1ccc(Nc2c3ccc(NC(=O)CCN4CCCC4)cc3nc3cc(NC(=O)CCN4CCCC4)ccc23)cc1
Second compound 0.0316 µM
  IC50: > 10 µM
Second compound 0.1 µM
  IC50: > 10 µM
Second compound 0.316 µM
  IC50: > 10 µM
Second compound 1 µM
  IC50: > 10 µM
Second compound 3.16 µM
  IC50: > 10 µM
Second compound 10 µM
  IC50: < 0.0316 µM
[1]
  viability, T/C: 118%
[2]
  viability, T/C: 102%
[3]
  viability, T/C: 105%
[4]
  viability, T/C: 90.8%
[5]
  viability, T/C: 71.6%
[6]
  viability, T/C: 99.9%
[7]
  viability, T/C: 117%
[8]
  viability, T/C: 114%
[9]
  viability, T/C: 126%
[10]
  viability, T/C: 86.8%
[11]
  viability, T/C: 86.9%
[12]
  viability, T/C: 78.6%
[13]
  viability, T/C: 104%
[14]
  viability, T/C: 103%
[15]
  viability, T/C: 87.4%
[16]
  viability, T/C: 97.2%
[17]
  viability, T/C: 111%
[18]
  viability, T/C: 85.8%
[19]
  viability, T/C: 118%
[20]
  viability, T/C: 91.8%
[21]
  viability, T/C: 98.5%
[22]
  viability, T/C: 104%
[23]
  viability, T/C: 81.8%
[24]
  viability, T/C: 73.5%
[25]
  viability, T/C: 73.3%
[26]
  viability, T/C: 78.1%
[27]
  viability, T/C: 73.4%
[28]
  viability, T/C: 63.3%
[29]
  viability, T/C: 70.2%
[30]
  viability, T/C: 60.4%
[31]
  viability, T/C: 29.4%
[32]
  viability, T/C: 66%
[33]
  viability, T/C: 41.8%
[34]
  viability, T/C: 40%
[35]
  viability, T/C: 43.3%
[36]
  viability, T/C: 31.4%
